Measurements reported in patent US10730022B2, “Process for the separation of organic compounds” (VITO NV, priority 2015, dated 2020).
Values joined by “and” are separate entries in the source; they are usually repeats but may differ in a detail not shown here. Equal entries are not always repeated.

What was measured:
[1] = % uncharged amine at pH 10, calculated using Henderson-Hasselbalch equation; format: physicochemical; details: for % uncharged at pH 10: calculated using Henderson-Hasselbalch equation; for uncharged/charged ratio of the amine at the pH of the feed solution: pH 10 feed
Experimental: Assuming that only the uncharged amine can pass through the membrane, the (theoretical) extractable amount can be calculated using the % uncharged amine at pH 10 (Table 1). For MPPA (596 mg in feed solution) and MBA (484 mg in the feed solution) this corresponds to 113 mg and 358 mg theoretical extractable amine, respectively. After 7 h, 15% of this amount was extracted for MPPA, while only 3% of this amount was extracted for MBA.

[2] = membrane contactor extraction of MPPA/MBA mixture from pH 10 feed into pH 3 sodium acetate collection solution (Example 1); format: physicochemical; details: for time of membrane extraction after which amine was detected in the acidic extracting solution: MPPA/MBA mixture, pH 10 feed, pH 3 collection, 30° C., 20 l/h, 300-500 mbar; for % of theoretical extractable amount extracted: after 7 h; for theoretical extractable amine: from % uncharged at pH 10, 596 mg MPPA and 484 mg MBA in feed
Experimental: A mixture of MPPA and MBA in a pH 10 aqueous buffer (feed solution) was applied to a first compartment of a membrane contactor module, with the second compartment comprising a sodium acetate buffer (pH 3) (collection solution). The membrane separation was performed at a flow rate of 20 l/h, a temperature of 30° C. and a transmembrane pressure of 300-500 mbar. Feed and collection solutions were continuously recycled in the membrane contactor module. The membrane used was a phenyl phosphonic acid functionalized ceramic membrane, wherein both the external surface as the internal surface of the pores was linked to the organic moiety. […] The amine concentration in the extracting sodium acetate solution was followed up over time (FIG. 4).

[3] = octanol/water; cited from earlier work
[4] = cited from earlier work
[5] = cited from earlier work; remark: listed apart in the source
[6] = membrane contactor extraction of MPPA/IPA mixture from pH 10 feed into pH 3 sodium acetate collection solution (Example 2); format: physicochemical; details: pH 3 collection, 30° C., 20 l/h, 300 to 500 mbar
Experimental: A mixture of isopropyl amine (IPA) and 1-methyl-3-phenylpropylamine (MPPA) in a pH 10 aqueous buffer (feed solution) was applied to a first compartment of a membrane contactor module, with the second compartment comprising a sodium acetate buffer (pH 3) (collection solution). The membrane separation was performed at a flow rate of 20 l/h, temperature of 30° C. and transmembrane pressure of 300 to 500 mbar. Feed and collection solutions were continuously recycled in the membrane contactor module. The membrane used was a phenyl phosphonic acid functionalized ceramic membrane (as in Example 1), wherein both the external surface as the internal surface of the pores was linked to the organic moiety. The amine concentration in the extracting sodium acetate solution was followed up over time (FIG. 5).

[7] = membrane contactor extraction of transamination reaction mixture in organic solvent into pH 3 sodium acetate buffer (Example 3); format: physicochemical; details: organic solvent feed, pH 3 sodium acetate extracting solution
Experimental: An enzymatically catalysed transamination reaction is performed in an organic solvent, using benzyl acetone (BA) and isopropyl amine (IPA) as respectively substrate ketone and substrate amine. […] The resulting products are acetone (as co-product ketone) and (S-)1-methyl-3-phenylpropylamine (S-MPPA—a chiral amine). This reaction is prone to product inhibition by MPPA.
The reaction mixture is passed through a membrane contactor module, using an acidic sodium acetate buffer (pH 3) as extracting solution.

| Structure (SMILES) | % uncharged at pH 10 [1] | uncharged/charged ratio of the amine at the pH of the feed solution [1] | time of membrane extraction after which amine was detected in the acidic extracting solution [2] | % of theoretical extractable amount extracted [2] | theoretical extractable amine [2] | LogP [3] | pKa [4] | solubility in aqueous liquids [5] | time of membrane extraction after which amine was detected in the acidic extracting solution [6] | membrane passage behaviour [7] |
| --- | --- | --- | --- | --- | --- | --- | --- | --- | --- | --- |
| CNCc1ccccc1 [MBA, methylbenzylamine] | 74% | ≈ 3 | 3.5 h | 3% | 358 mg | 1.7 | 9.54 |  |  |  |
| CC(=O)CCc1ccccc1 [BA, benzyl acetone] |  |  |  |  |  |  |  | 10 mM and 1.48 g/1 |  |  |
| CC(C)N [IPA, isopropyl amine] | 16% |  |  |  |  | 0.391 | 10.73 |  | about 7 h | mainly remains in the feed solution |
| CC(N)CCc1ccccc1 (stereo not shown) [MPPA, 1-methyl-3-phenylpropylamine] | 19% | ≈ 0.25 | less than 1 h | 15% | 113 mg | 2.264 | 10.63 |  | less than 1 h | efficiently passes the membrane |
